Assay results reported in patent US12350337B2, “Polymeric drug delivery conjugates and methods of making and using thereof” (UNIVERSITY OF UTAH RESEARCH FOUNDATION, priority 2019, dated 2025).
Where no end group is shown, it is not given here. [ ]: non-standard residue; d: D form.

Legend:
4T1 tumors [1] = experiment: 4T1 tumor growth, survival and endpoint tumor immune analysis (EPI, KT-1, α-CD8, α-PD-L1 combinations); type: in vivo, BALB/c mice
4T1 tumors [2] = experiment: In vivo ICD induction and immune cell analysis after two doses; set-up: species or system BALB/c mice; conditions: Day 15
Description: (§1) Fluorescence intensities were normalized to the same scale. Black circles indicate the tumor. (B) In vivo tumor cell uptake of EPI after the mice were treated with either free EPI or KT-1 (10 mg/kg EPI equivalence) at 1, 4, 7 days post injection. Data represent n=5 independently analyzed mice/group. […] Blue: cell nuclei; Green: EPI; Red: CRT. […] Data are represented as box plots (whiskers, 5th to 95th percentile). n=4 for saline and EPI treatments, and n=6 for KT-1 treatment, from a representative experiment from two independent experiments. * P<0.05 by student's t-test.
Having shown tumor-targeted delivery of KT-1, KT-1's impact on inducing ICD that implicates calreticulin (CRT) expression and high-mobility group box 1 (HMGB1) release was examined. CRT exposed on the surfaces of immunogenically dying tumor cells sends dendritic cells (DCs) an “eat me” signal to facilitate phagocytosis by antigen-presenting cells (APCs), while released HMGB1 functions as the “danger” signal and stimulates optimal antigen presentation to T cells. […] In FIG. 3D-E, BALB/c mice bearing non-immunogenic 4T1 tumors, were given two intravenous doses (on Days 7 and 14 after tumor implantation) of treatments with saline, EPI or KT-1 (first EPI equivalence dose 10 mg/kg followed by second dose 5 mg/kg).
This could be the result of efficiently triggering ICD-associated signals in tumors. […]

4T1 cells [3] = experiment: Lysosome colocalization (confocal); type: cell-based, murine; conditions: 3 h at 37° C.
Description: (§2) (A) Schematic illustration of inhibiting PD-L1 recycling by MPPA crosslinking. (B) Lysosome colocalization with α-PD-L1-Cy5 or Cy3-labeled MPPA (P-(PPA)14-Cy3) after 3 h treatments at 37° C. Blue: nuclei; Red: Cy3/Cy5; Green: lysosome. (C) Whole cell PD-L1 expression with or without lysosome hydrolysis inhibition by E-64. 4T1 cells were treated with α-PD-L1, PPA, or MPPA for 3 h in the absence (−) or presence (+) of E-64 cysteine protease inhibitor. Afterward, cells were further incubated in cell culture medium for another 24 h, prior to PD-L1 quantification. (D) Time-dependent recovery of surface PD-L1. […] (E) In vivo tumoral PD-L1 expression, and (F) representative flow cytometry analysis plots of CD3+CD8+CTLs and CD4+ Foxp3+ Tregs after KT-1 and MPPA combination treatment as indicated by arrows in (E). n=3 in (C) and (D), and n=5 in (E) and (F), from a representative experiment from two independent experiments.
(§3) Together, these findings established the polymer-facilitated crosslinking of surface PD-L1 as a potential therapeutic strategy to produce prolonged elimination of PD-L1, rather than the transient blocking afforded by standard anti-PD-L1 antibodies.

4T1 tumors [4] = experiment: 4T1 tumor therapy with PPA, MPPA and KT-1 combinations; type: in vivo, BALB/c mice
From the text: (B) Individual tumor volume, (C) body weight change, and (D) survival rate in 4T1-tumor bearing BALB/c mice over time after different treatments (n=5-10). (E) Individual tumor volume measurement after naive control mice or KT-1→MPPA treated CR mice in (D) were subcutaneously re-challenged with 4T1 or CT26 cells (n=5). (F) The representative scatter plots of the percentage of tumor cell-reactive T cells (IFN-γ+CD8+) among PBMCs from KT-1→MPPA treated CR mice in (D) against 4T1 cells or CT26 cells (n=5). (G) Mice survival curve after re-challenge by i.v. injection of 4T1 cells after initial KT-1→MPPA treatment (n=5). (H) CD44+CD62L-memory effector CD8+ T cells in spleen after 4T1 cell i.v. re-challenge (n=5).

[5] = test system: LLC-1 Lewis lung carcinoma cells; experiment: Metastatic LLC-1 Lewis lung carcinoma model
Description: (I) Survival rate of mice after indicated treatments (n=5). C57BL/6 mice were intravenously inoculated with 2×10^5 LLC-1 Lewis lung carcinoma cells on day 0. Then mice were treated as described in (A). (J) The fold increases in the percentage tumor cell-reactive T cells (IFN-γ+CD8+) among PBMCs from mice in (I) on Day 25 against LLC-1 cells. (K) CD44+CD62L-memory effector CD8+ T cells in spleen from mice in (I) on Day 25. (L) Tumor burden in lungs from mice in (I) on Day 25, depicted as lung weight and hematoxylin-eosin histology analysis of lung lobe sections.* P<0.05, n.s, not significant, one-way ANOVA with Tukey's multiple comparison test.

CT26 tumors = experiment: Subcutaneous CT26 colon carcinoma model; type: in vivo, BALB/c mice
From the text: Blue: cell nuclei; Green: EPI; Red: CRT.
Moreover, KT-1→MPPA further improved the anti-tumor efficacy, and outperformed KT-1→α-PD-L1 (20% complete tumor regression), leading to complete regression of established tumors in 60% of animals (FIG. 15A).

4T1 tumors [6] = experiment: In vivo tumoral PD-L1 expression and tumor-infiltrating lymphocytes after KT-1 followed by PD-L1 blockade; set-up: species or system BALB/c mice; conditions: for tumoral PD-L1 expression: KT-1 Days 7 and 14, PD-L1 blockade Day 15, two days post blockade
Description: as §2
To validate the PD-L1 depletion in vivo, mice bearing 4T1-tumor were treated with α-PD-L1, PPA, or MPPA on Day 15, following two doses of KT-1 treatment on Day 7 and 14 (FIG. 7E). Tumoral PD-L1 expression and tumor-infiltrating lymphocytes were studied two days post PD-L1 blockade.

PD-L1 [7] = molecular target: T1, PD-L1 (Mus musculus, UniProt Q9EP73); experiment: Whole cell PD-L1 expression with or without E-64; type: cell-based, murine
T1 construct: Specificity of PPA towards PD-L1 on 4T1 cells; endogenous in cells; host or cells: 4T1 cells
Description: as §2, §3

PD-L1 [8] = molecular target: T1, PD-L1; experiment: PPA specificity to PD-L1: inhibition of Cy5-labeled anti-PD-L1 antibody binding on 4T1 cells; set-up: species or system murine; conditions: 0.2 mM, pretreatment 1 h, co-incubation 1 h, 4° C.
Description: (A) The PD-1/PD-L1 interaction mediated by PPA from immune escape to cancer immunotherapy. (B) Specificity of PPA towards PD-L1 on 4T1 cells. Negative control: Cy5-labeled anti-CD20 mAb rituximab (RTX) incubation with 4T1 cells at 4° C. for 1 h; Positive control: Cy5-labeled anti-PD-L1 antibody incubation with 4T1 cells at 4° C. for 1 h; PPA: 0.2 mM PPA pretreatment for 1 h and co-incubation with Cy5-labeled anti-PD-L1 antibody for 1 h 4° C. […] (C) Synthesis scheme and characterization of Cy3-labeled HPMA copolymer-PPA conjugates with different PPA valences.
PD-L1 peptide antagonist (PPA), with the amino acid sequence shown in FIG. 8A, was reported to bind PD-L1 with high affinity, and further confirmed in FIG. 8B. To achieve multimeric PD-L1 crosslinking, PPA was grafted onto HPMA copolymer to generate the multivalent polymer-PPA conjugates. By varying the ratio of the reaction components, a panel of conjugates was prepared with different valences for subsequent evaluation. Three conjugates with Cy3 labeled backbone were prepared: P-(PPA)14-Cy3, P-(PPA)4.3-Cy3, P-(PPA)1.3-Cy3, with the subscript denotes the valence. Additionally, unlabeled MPPA for receptor depletion studies was prepared with degradable backbone.

PD-L1 [9] = molecular target: T1, PD-L1; conditions: cited from earlier work
4T1 cells [10] = experiment: Internalization of surface bound P-(PPA)x-Cy3; type: cell-based, murine; conditions: 37° C., compared with low-valence P-(PPA)1.3-Cy3 and P-Cy3
Description: Then surface PD-L1 along with receptor-bound conjugates were removed by proteinase-K digestion (0.4 mg/mL, 20 min, 37° C.), and flow cytometry was used to measure the internalized conjugates. Experiments were conducted in triplicate.
as §3

4T1 tumor = test system: 4T1 tumor; set-up: species or system BALB/c mice; conditions: mouse, in vivo, iv
Description: as §1
KT-1, a degradable diblock HPMA copolymer-EPI conjugate with narrow polydispersity, was synthesized via one step reversible addition-fragmentation chain transfer (RAFT) polymerization and characterized in FIG. 2B and the techniques provided in Yang et al., J. Controlled Release, 218 (2015) 36-44. KT-1 has long-lasting retention in tumors. […] In contrast, KT-1-Cy5 profoundly accumulated at tumor site, which peaked at 24 h and lasted for at least 196 h.

[11] = 3 weekly treatments, EPI equivalence 10 mg/kg then two doses 5 mg/kg
[12] = KT-1 Days 7 and 14, PD-L1 blockade Day 15

T1 sequence (Q9EP73 19-290): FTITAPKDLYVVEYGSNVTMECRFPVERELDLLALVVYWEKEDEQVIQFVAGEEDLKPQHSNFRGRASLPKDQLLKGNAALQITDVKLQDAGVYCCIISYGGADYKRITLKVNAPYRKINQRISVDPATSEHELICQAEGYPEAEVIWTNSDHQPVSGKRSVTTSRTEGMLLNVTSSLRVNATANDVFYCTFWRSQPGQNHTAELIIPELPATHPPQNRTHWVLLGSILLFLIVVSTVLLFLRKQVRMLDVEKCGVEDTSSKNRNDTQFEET

What does the source list for `COc1cccc2c1C(=O)c1c(O)c3c(c(O)c1C2=O)C[C@@](O)(C(=O)CO)C[C@@H]3O[C@H]1C[C@H](N)[C@@H](O)[C@H](C)O1` [EPI, Epirubicin]?
animal survival (4T1 tumors [1]; [11]): limited effect; tumor growth (4T1 tumors [1]; [11]): limited effect on controlling tumor; tumor PD-L1 expression after chemotherapy (4T1 tumors [1]; endpoint of 3 weekly treatments): adaptively enriched; frequency of CD11c+CD11b+Ly6c+CD86+ cells in tumor-draining lymph nodes (4T1 tumors [2]): failed to generate the subset of CD11c+CD11b+Ly6c+ DCs

Which lysosome colocalization (4T1 cells [3]) does the source give for “MPPA: backbone-degradable HPMA copolymer grafted with multiple copies of PD-L1 peptide antagonist PPA, valence 12.6 (CNYSKPTDRQYHF)” here?
The lysosome colocalization was “substantial MPPA internalized into lysosome”.

What about the “tumor growth / therapeutic efficacy” value (4T1 tumors [4]) of the same compound?
The value was “slightly better therapeutic efficacy than PPA”.

What about the median survival ([5]; C57BL/6 mice, i.v. LLC-1 cells) of the same compound?
Its median survival is 28 days.

What about the “reactive IFN-γ+CD8+ T cells in PBMCs and CD8+CD62L-CD44+ effector memory T cells in spleen” value ([5]; Day 25) of the same compound?
The value was “none of the treatments with saline, α-PD-L1, or MPPA increased the number”.

And the tumor growth (CT26 tumors; CT26, KT-1 days 7, 14, 21, anti-PD-L1 therapy days 15, 22)?
Its tumor growth is “marginal effect in inhibiting tumor growth”.

And the “PD-L1 expression in CT26 tumors” value (CT26 tumors; Day 17, after KT-1 Days 7 and 14, one dose Day 15)?
Its value is “more profound decrease in PD-L1 expression than α-PD-L1”.

And the “tumor infiltration of CTLs” value (4T1 tumors [6]; [12])?
The value was “did not further enhance tumor infiltration of CTLs”.

And the “tumoral PD-L1 expression” value (4T1 tumors [6])?
The value was “further reduction in PD-L1 expression”.

What about the PD-L1 depletion (PD-L1 [7]; 24 h post cell binding, without E-64) of the same compound?
The PD-L1 depletion was “depleted PD-L1 to a higher degree than α-PD-L1”.

What about the “PD-L1 depletion in the presence of E-64” value (PD-L1 [7]; E-64 cysteine protease inhibitor present) of the same compound?
Its value is “alleviated MPPA-triggered PD-L1 depletion”.

For NYSKPTDRQYHF [PPA], which “tumor growth / therapeutic efficacy” value (4T1 tumors [4]) is on record?
Its value is “barely delayed tumor growth”.

And the “cell surface binding of anti-PD-L1 antibody after pretreatment” value (PD-L1 [8])?
Its value is “significantly inhibited”.

And the Tregs in tumors (4T1 tumors [6]; [12])?
Its Tregs in tumors is “depleted Tregs”.

What about the “tumor infiltration of CTLs” value (4T1 tumors [6]; [12]) of the same compound?
Its value is “did not further enhance tumor infiltration of CTLs”.

And the “tumoral PD-L1 expression” value (4T1 tumors [6])?
The value was “downregulated PD-L1 expression”.

And the “binding to PD-L1 (reported)” value (PD-L1 [9])?
Its value is “high affinity”.

For “P-(PPA)4.3-Cy3 ([dN][dY][dS][dK][dP][dT][dD][dR][dQ][dY][dH][dF]; also: conjugated to (PPA)4.3 and Cy3, places not given here)”, which internalization rate (4T1 cells [10]) is on record?
Its internalization rate is “accelerated internalization rates”.

With “P-(PPA)14-Cy3 ([dN][dY][dS][dK][dP][dT][dD][dR][dQ][dY][dH][dF]; also: conjugated to (PPA)14 and Cy3, places not given here)” as the compound, how does the internalization rate (4T1 cells [10]) read?
Its internalization rate is “accelerated internalization rates”.

For cyanine 5 [Cy5], which “tumor retention (in words)” value (4T1 tumor) is on record?
The value was “rapidly eliminated from the tumor and barely detectable after 2 h post-injection”.
